Laboratory results taken from patent US6184333A, “Low-toxicity, high-temperature polyimides” (Maverick Corporation, priority 1999, dated 2001).

Columns and labels:
[1] = cited from earlier work; for Carcinogenicity: animals, where stated; for Toxicity: in vivo
Solubility in methanol = type: physicochemical
From the text: A matrix of polyirnide copolymers was synthesized by using Bisaniline-P, Bisaniline-M, and paraphenylenediamine (PPDA). Partial molar substitutions of PPDA (up to 50 mole percent) were used in order to increase glass transition temperatuer and/or thermal oxidative stability. Pre-polymer molecular weight was also adjusted to favorably impact processing parameters as well as the final Tg. Each copolymer was formulated at a molar ratio of 2 NE: 2 BTDE: 3 Diamine. All of the resin systems were synthesized using standard techniques known in the industry. In some of the BIS-P formulations, n-methylpyrrilidinone (NMP) was used as a solvent in addition to methanol. This was done in order to maintain the solubility of the fairly large molecular-weight BIS-P diamine. […] A detailed description of the low-toxicity polyimnide systems that were developed is shown below in Table IV.

rat [2] = experiment: Acute oral LD50; type: in vivo; details: vs. MDA
From the text: Except for BAX, the advantages of these diamines include low cost (<$50/pound) as well as low toxicity. […] (ADD IN FNOTE 19) Table I compares the toxicological data of MDA vs. That of Bisaninine-P and Bisaniline-M. In addition, the Ames Mutagenicity Assays for Bisaniline-P and Bisaniline-M were negative with and without metabolic activation. (ID)

rabbit skin = details: cited from earlier work
rat [3] = details: cited from earlier work
[4] = with and without metabolic activation; cited from earlier work
rat [5] = details: cited from earlier work; remark: listed apart in the source

Row | Compound | Carcinogenicity [1] | Toxicity [1] | Solubility in methanol (Solubility in methanol) | Acute oral LD50 compared with that of MDA (rat [2]) | Skin irritation (printed in the Acute Dermal LD50 line) (rabbit skin) | Acute Oral LD50 (rat [3]) | Ames Mutagenicity Assay [4] | Acute Dermal LD50 (rat [5]) | Human carcinogenicity ([1]; human)
1 | CC(C)(c1ccc(Oc2ccc(N)cc2)cc1)c1ccc(Oc2ccc(N)cc2)cc1 [BAPP, 2,2-bis(4-[4-aminophenoxyl]phenyl) propane] | non-carcinogenic | non-toxic |  |  |  |  |  |  | 
2 | CC(C)(c1ccc(N)cc1)c1cccc(C(C)(C)c2ccc(N)cc2)c1 [BIS-M, 4,4'-(1,3-phenylene-bis(1-methylethylidene))bisaniline] |  |  | readily soluble | more than ten times higher | Non-irritating | 6,240 mg/kg | negative |  | 
3 | CC(C)(c1ccc(N)cc1)c1ccc(C(C)(C)c2ccc(N)cc2)cc1 [BIS-P, 4,4'-(1,4-phenylene-bis(1-methylethylidene))bisaniline] |  |  |  | more than ten times higher |  | > 5,000 mg/kg | negative | > 2,000 mg/kg | 
4 | Nc1ccc(N)cc1 [PPDA, para-phenylenediamine] | no carcinogenic activity in animals |  |  |  |  |  |  |  | 
5 | Nc1ccc(Cc2ccc(N)cc2)cc1 [MDA, 4,4'-methylenedianiline, reference compound] | known animal carcinogen | known kidney and liver toxin |  |  |  | 347 mg/kg |  | 200 mg/kg | suspected human carcinogen
